# Experimental data taken from PMC12296492 (Cell Reports Methods, 2025).
# Columns and labels:
# [1] = target: human STING ligand-binding domain (hSTING-LBD) (Homo sapiens, UniProt Q86WV6); assay: BLI Kd
# [2] = target: T1, mouse STING ligand-binding domain (mSTING-LBD) (Mus musculus, UniProt Q3TBT3); assay: BLI
# T1 sequence (Q3TBT3 146-370): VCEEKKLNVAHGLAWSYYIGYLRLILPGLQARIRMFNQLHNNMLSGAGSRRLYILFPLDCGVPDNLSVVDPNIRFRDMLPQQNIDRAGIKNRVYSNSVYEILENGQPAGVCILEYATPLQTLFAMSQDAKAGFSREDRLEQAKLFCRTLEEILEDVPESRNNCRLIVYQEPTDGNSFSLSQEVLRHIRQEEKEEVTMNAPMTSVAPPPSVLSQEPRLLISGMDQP
# Sequence of human STING ligand-binding domain (hSTING-LBD) (Q86WV6 155-343): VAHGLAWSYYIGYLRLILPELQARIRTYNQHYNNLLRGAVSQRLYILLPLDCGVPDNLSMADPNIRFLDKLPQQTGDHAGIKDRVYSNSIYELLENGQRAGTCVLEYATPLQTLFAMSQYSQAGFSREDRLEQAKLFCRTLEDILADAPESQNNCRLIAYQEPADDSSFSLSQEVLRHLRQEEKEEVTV
smiles,measurement,setting,value
C=CCc1ccc(O)c(-c2ccc(O)c(CC=C)c2)c1 [honokiol],Kd,[1],12.9 ± 0.4 µM
same,Kd,[2],17 ± 0.5 µM
